Data on 3 compounds can be found in patent US20020086027A1, “Composition and method for enhancing immunological memory response” (priority 1998, published 2002).

Test [1] deals with human T cells. Nature of the test: Primary alloproliferative response of responder PBMCs to irradiated MHC-mismatched stimulator PBMCs ([3H]thymidine incorporation). The class given is cell-based. As for the experimental part:
In this system, we have used responses to first exposure as an indication of primary responses. When cells stimulated in this fashion are rested in culture and then restimulated with the same stimulator PBMCs, the 'recall' response measured are taken as an indication of immune memory. Proliferation is measured by the incorporation of radioactive tritiated thymidine in dividing cells. PBMCs from HLA-mismatched individuals were separated using density-gradient centrifugation on Ficoll-Paque (Pharmacia, Uppsala, Sweden). Stimulator PBMCs were used in titrated doses after g-irradiation (200 rads). For the primary proliferative alloresponses, stimulator in graded doses were used with 1-3×10^5 responders per well in 200 μl of RPMI-1640 (Life Technologies, Grand Island, N.Y.) fortified with L-glutamine (Life Technologies) and antibiotics, containing 10% heat-inactivated responder autologous serum. Cultures were incubated in a CO2 atmosphere for five days, pulsed with 0.5 uCi of (H^3)-thymidine (New England Nuclear, Boston, Mass.) for the last 8-12 hours of the assay and harvested onto glass fiber filters for counting cell-incorporated thymidine (Betaplate; Wallac, Finland). results are expressed as mean cpm±SE for triplicate cultures. Dibutyryl cyclic AMP (dbcAMP), pentoxifylline (POX), aphidicolin (all from Sigma Chemical Co., St Louis, Mo.) and recombinant IL-2 (Boehringer Manheim Corp., Manheim Germany) were added singly or together to the culture in various doses as indicated during priming and in primary alloresponse assays. […] Sigma Chemical Co.) at room temperature for 20 minutes, washed extensively and used. PBMCs from MHC-mismatched donors were used as responder-stimulator pairs. Stimulator cells were used after γ-irradiation (200 rad) at various concentrations, as shown. Proliferation assays were set up as parallel cultures and were pulsed and harvested as below on different days when necessary for the analyses of the kinetics of the response. Where appropriate, cyclosporin A (CsA, Sandoz, Milan, Italy), aphidicolin (Aph, Sigma Chemical Co., and/or pentoxifylline ([…], Sigma Chemical Co.) Were added at the concentrations indicated, or PFA-fixed PBMCs were used. The plated were pulsed with 0.5 to 1 μCi of (^3H)thymidine ([^3H]TdR. Amersham, Little Chalfont, U.K.) During the last 12 to 16 h of the assay (4 days for a recall assay and 6 days for a primary assay, unless indicated otherwise). [^3H] TdR incorporation was measured by harvesting the cultures on glass-fibers and counting in a scintillation counter (Betaplate: LKB-Pharmacia. Uppsala, […]). The results are expressed as mean cpm±SE of triplicate cultures.
Background: Incorporation of labelled thymidine or its analogues reports DNA synthesis.

Test [2] deals with human T cells. Put plainly: Secondary (recall) alloproliferative response of T cells primed in vitro. The class given is cell-based. As for the experimental part:
In this system, we have used responses to first exposure as an indication of primary responses. When cells stimulated in this fashion are rested in culture and then restimulated with the same stimulator PBMCs, the 'recall' response measured are taken as an indication of immune memory. Proliferation is measured by the incorporation of radioactive tritiated thymidine in dividing cells. For priming, responder and stimulator cells mixed in 2-5 ml cultures in a ratio of 1:1-3:1. After five days of incubation, the cells were harvested, counted and viable cells used as primed responders with g-irradiated allostimulators in secondary alloproliferation assays, which were pulsed with (H^3)-thymidine after four days for estimating cell proliferation. For flow cytometric analysis, cells were separated from debris by Ficoll-Paque gradient centrifugation before staining. […] Sigma Chemical Co.) at room temperature for 20 minutes, washed extensively and used. For priming in vitro, responder PBMCs were incubated for 72 or 144 h at a ratio of either 1:1 or 2:1 respectively, with stimulator PBMCs. Where appropriate, CsA. Aph. and/or […] were added at the concentrations indicated, of PFA-fixed PBMCs were used instead.

In test [3] the test system is allo-specific precursor T cells. Put plainly: Limiting dilution analysis of clonal responder frequency and burst size. The format is cell-based, human. The following applies: drug present during priming (POX 100 ug/ml). The text has this:
Limiting dilution analyses were used to calculate the number of transplantation antigen-specific memory T cells in cultures primed in the presence or absence of POX. Multiple replicate wells of titrated numbers of primed responders were restimulated. the numbers of wells showing proliferative responses at each responder dose were used to calculate the frequency of responding memory t cells in the primed populations. estimates of the extent of proliferation in wells effectively containing single responder cells served as a measure of clonal burst size. […] To determine the frequence of all-specific precursor cells in the various responder populations, titrating numbers (from 10,000 to 200 per well) of variously primed cells were added to a constant number (1×10^5 per well) of g-irradiated stimulator PBMCs. Of the 48 wells plated per responder dose, those wells showing a response at least twice that of the background value were scored positive. The responder frequency was calculated by taking the number of negative wells into account. The response was considered clonal at the responder cell number where the proportion of positively responding wells was less than 37%. At responder cell concentrations showing clonal frequencies, the average cpm values of responding (versus non-responding) wells were used as an estimate of the average clonal burst size of single responding T cells.

Test [4] concerns CD25+ CD4 T cells. Put plainly: Flow cytometry of CD25 and Fas (CD95) on primed cells. The class given is cell-based, human. The following applies: aphidicolin 1 ug/ml present during two-day rest period. As for the experimental part:
For analysis of cell surface markers, primed cell populations separated on Ficoll-Paque gradients were used. […] Briefly, 1-3×10^5 cells per well were stained with primary antibodies at 4° C., followed by appropriately labeled secondary reagents if required. Samples were analyzed using a Bryte flow cytometer (bio-Rad, Hemel Hampstead, UK). Antibodies to the T cell markers CD3 (OKT3), CD4 (OKT4), and to the activation markers CD25 and Fas (CD95) were used for staining. To detect apoptosis using propidium iodide (PI, Sigma Chemical Co.), antibody-stained cells were fixed and permeabilized with 70% ethanol, washed, and PI […] added just before cytometric analysis. Data were analyzed using FlowJo software (Treestar, San Jose, Calif.).
The phenotype of CD4 T cells activated during priming in vitro was examined next using various markers associated with T cell activation. Antibodies against CD25 (IL-2Ra), CD26, CD45RO, CD69 and gp240 were used, but except for CD25, none of the other markers gave consistent and reliable results (data not shown). CD25 expression on CD4 T cells in the responder populations was examined in a two-color flow cytometric analysis at two separate time points,—at the end of six days of priming and after two further rest days in culture after washing and resuspension in resh medium without any stimuli. Most CD25-expressing cells in the primed cultures were CD4 T cells. […] The frequency of CD25 expression increased in the PBMC-primed responders (FIG. 17B) and this percentage was lower if POX (100 μg/ml) was present during priming (FIG. 17C). […] Similar data were observed if dbcAMP was present during priming (data not shown). It can be seen that the proportion of CD25* cells was reproducibly lower if POX was present during priming with allo-PBMCs. However, after 48 hours of rest in culture, the frequency of CD25* cells declined in the populations primed in the absence of POX, while it went up in the group primed under POX cover.
On the technique in general: In flow cytometry, cells or beads pass a laser one at a time.

Take paraformaldehyde [PFA]: the “primary alloproliferative response to PFA-fixed APCs” value in test [1] (0.0003% PFA) was “significant lowering”. Moreover, in test [2] (0.003% PFA, vs unfixed APCs), the “recall response capability induced by PFA-fixed APCs” value is recorded as “comparable with or greater than”. For the same compound, the “recall response of cells primed with PFA-fixed APCs” value in test [2] (0.3% PFA, vs unprimed cells) is “distinctly lower”.
Regarding `CCCC(=O)Nc1ncnc2c1ncn2[C@@H]1O[C@@H]2COP(=O)(O)O[C@H]2[C@H]1OC(=O)CCC` [dbcAMP, Dibutyryl cyclic AMP], the values for the primary proliferative response result in test [1] (1 mM dbcAMP), in test [1] (10 mM dbcAMP) and in test [1] (100 mM dbcAMP) were “inhibits”, “No effect” and “does inhibit”, respectively. Besides, the recall response in test [2] (priming in presence of 10 mM dbcAMP) was “No effect”. Besides, the secondary response entry in test [2] (priming in presence of 100 mM dbcAMP) is recorded as “significant enhancement”. Moreover, the “frequency of alloreactive responder (memory) T cells” value in test [3] is given as “significantly enhances”.
For `C[C@@]1(CO)[C@H](O)CC[C@@]2(C)[C@H]1CC[C@H]1C[C@@H]3C[C@@]12CC[C@]3(O)CO` [Aph, aphidicolin], the figures for the “T cell proliferation in first response” value in test [1] (1 μg/ml Aph) and in test [1] (3 μg/ml Aph) were “inhibited substantially” and “completely undetectable”, respectively. Further, the “kinetics of primary response” value in test [1] (days 4-10, drugs present throughout) is “declines equivalently”. For the same compound, in test [1] (drugs removed on day 6, pulsed days 8 and 10), the “primary response after drug removal” value was “no increase”. For the same compound, in test [2] (no stimulators), the “responses of unprimed PBMCs incubated with Aph” value is on record as “unaltered”. Also, the recall response in test [2] (primed with 1 μg/ml Aph vs primed in absence of Aph) is listed as “comparable”; in test [2] (primed with 3 μg/ml Aph), “significant enhancement”. Moreover, the “increase in frequency of CD25+ cells in responders exposed to POX during priming” value in test [4] is reported as “does not abrogate”.
